According to ChEMBL document CHEMBL3792350, “Discovery of a Potent and Orally Efficacious TGR5 Receptor Agonist” (ACS Med Chem Lett, 2016):

Key:
Format in all cases: ADME, organism-based
[1] = Clearance in Sprague-Dawley rat at 1 mg/kg, iv as bolus dose by LC-MS/MS analysis; conditions: in vivo
[2] = AUC in Sprague-Dawley rat at 3 mg/kg administered via oral gavage by LC-MS/MS analysis; conditions: in vivo
[3] = Half life in C57Bl/6 mouse at 1 mg/kg, iv as bolus dose by LC-MS/MS analysis; conditions: in vivo
[4] = Clearance in C57Bl/6 mouse at 1 mg/kg, iv as bolus dose by LC-MS/MS analysis; conditions: in vivo
[5] = Volume of distribution at steady state in Sprague-Dawley rat at 1 mg/kg, iv as bolus dose by LC-MS/MS analysis; conditions: in vivo, read-out: Vdss
[6] = Cmax in Sprague-Dawley rat at 3 mg/kg administered via oral gavage by LC-MS/MS analysis; parameters: dose 3 mg/kg, route oral; conditions: in vivo
[7] = Oral bioavailability in Sprague-Dawley rat at 3 mg/kg administered via oral gavage by LC-MS/MS analysis; conditions: in vivo
[8] = Half life in Sprague-Dawley rat at 1 mg/kg, iv as bolus dose by LC-MS/MS analysis; conditions: in vivo
[9] = Cmax in C57Bl/6 mouse at 3 mg/kg administered via oral gavage by LC-MS/MS analysis; parameters: dose 3 mg/kg, route oral; conditions: in vivo
[10] = Oral bioavailability in C57Bl/6 mouse at 3 mg/kg administered via oral gavage by LC-MS/MS analysis; conditions: in vivo
[11] = AUC in C57Bl/6 mouse at 3 mg/kg administered via oral gavage by LC-MS/MS analysis; conditions: in vivo
Mus musculus = experiment: fAUC in po dosed diet-induced obese C57 mouse administered as single dose 15 mins; conditions: in vivo, 0.25 h
[12] = Volume of distribution at steady state in C57Bl/6 mouse at 1 mg/kg, iv as bolus dose by LC-MS/MS analysis; conditions: in vivo, read-out: Vdss

clearance [1] | AUC [2] | half-life [3] | clearance [4] | Vd [5] | Cmax [6] | bioavailability [7] | half-life [8] | Cmax [9] | bioavailability [10] | AUC [11] | fAUC (Mus musculus) | Vd [12] | SMILES
79.7 mL/min/kg | 207 ng·h/mL | 19.8 min | 47.3 mL/min/kg | 2.05 L/kg | 148 ng/mL | 31% | 19.2 min | 789 ng/mL | 71% | 754 ng·h/mL | 231.38 ng·h/mL | 0.83 L/kg | COc1ccc(C(C)(C)c2cnc(SCCOc3ccc(-n4ccnc4)cc3)n2-c2ccc(F)cc2)cc1OC
– | – | 45.6 min | 45.5 mL/min/kg | – | – | – | – | 51.8 ng/mL | 7% | 73.5 ng·h/mL | – | 1.54 L/kg | COc1ccc(C(C)(C)c2cnc(SCc3c(F)cccc3Cl)n2-c2ccc(F)cc2)cc1OC
